Reference: publication PMC9356039, “Multifunctional synthetic nano-chaperone for peptide folding and intracellular delivery” (Nature Communications, 2022)

Columns and labels:
[1] = Water solubility (in words); type: physicochemical
p53 in HepG2 cells = assay: Western blot, p53 protein level; type: cell-based, human
Experimental: Cells were lysed with Pro-PREP (IntronBio, Korea) according to the manufacturer’s protocol. The samples were centrifuged at 2000 × g and 4 °C for 15 min. The supernatant was collected to a 1.5 mL ep-tube and stored at −80 °C. After protein quantification using Pierce^TM BCA assay kit (Thermo Fisher Scientific, USA), the same amount of protein was diluted in water containing 5×loading buffer (Biosesang, Korea) and loaded on SDS-PAGE gel (Bio-rad, USA). After electrophoresis in Tris-Glycine SDS buffer at 80 V for 120 min, proteins in a gel were transferred to a nitrocellulose membrane (0.45 μm, Bio-rad, USA) in 1× Tris-Glycine Native Buffer (GenDEPOT, Korea) with 10% methanol at 90 V, and 4 °C for 90 min under stirring condition. The membrane was blocked with 5% milk to inhibit non-specific binding and immersed overnight at 4 °C in the presence of primary antibodies; GAPDH (1:2000, Abcam, USA), p53 (1:1000, Cell signaling, USA), MDM2 (1:1000, Cell signaling, USA), Bcl2 (1:1000, Cell signaling, USA) and CytC (1:1000, Cell signaling, USA). Anti-rabbit goat pAb, horseradish peroxidase (HRP)-linked antibody (1:5000, Abcam, USA) was used as a secondary antibody and the membrane was incubated for 1 h. After the reaction with the detection agent West Pico PLUS (Thermo Fisher Scientific, USA), bands of protein were monitored by a ImageQuant^TM LAS 4000 mini (GE Healthcare, USA). […]

[2] = CD spectroscopy, α-helicity by CONTIN-LL; type: physicochemical; conditions: for helix1 / helix2 / helix % / strand1 / strand2 / total helix / turns / unordered: CONTINLL from CD spectra
Experimental: CD spectra were measured using a J-810 spectropolarimeter (JASCO, Japan). Spectra were recorded from 250 nm to 190 nm wavelength using a 1 cm path-length cuvette. Scans were repeated five times and averaged. Molar ellipticity was calculated per amino acid residue. The concentrations of SNCP and p53pep were 0.2 mg/mL and 20 μM, respectively. All sample suspensions were incubated at least for 2 days at room temperature before CD measurement. To perform temperature-dependent CD experiments, the spectra were recorded at 10 °C interval over a temperature range of 25 to 75 °C, with 30 min incubation time to reach equilibrium at each temperature. The α-helicity of peptides was calculated by using the CONTIN-LL algorithms provided from the DICHROWEB server.

HepG2 cells = assay: CCK-8 cell viability; type: cell-based, human; conditions: 24 h, 50
Experimental: Human liver cancer cell line HepG2 were grown in DMEM containing 10% FBS and 1% penicillin/streptomycin at 37 °C in a humidified atmosphere of 5% CO2. HepG2 cells (1.2 × 10^5 cells/well) were seeded in a 4-well glass plate for 24 h. Then, SNCPs@st-p53pep (0.02 mg/mL) and st-p53pep alone (2 μM) were added to each well in a serum-free medium for 4 h. After incubation, the cells were carefully rinsed with PBS, and the medium was replaced with a serum-containing fresh medium. After the nucleus was stained with Hoechst 33342 staining kit by manufacturer’s protocol, bright field and fluorescence images were obtained by using a DeltaVision Elite Microscopy System (GE Healthcare, USA). To observe the distribution of SNCP8 and st-p53pep in cells, TAMRA-labeled SNCP8@FAM-labeled st-p53pep (0.25 mg/mL) was treated in the same manner instead of SNCP8@st-p53pep. And then, the Mander’s overlap coefficient (MOC) was calculated in the Image J program (ver. 1.52a) via the JACoP plugin to identify co-localization between fluorescence signals over time. […] The cell viability was determined using cell counting kit-8 (CCK-8) assay by monitoring absorbance at 450 and 670 nm wavelength measured using a microplate reader (Molecular Devices, Inc., USA). The EC50 values of SNCPs@st-p53pep were determined by the logistic curve-fitting method with Origin (OriginLab, USA).

## CC(C)C[C@@H]1NC(=O)[C@H](CC(C)C)NC(=O)[C@H](CCCNC(=N)N)NC(=O)[C@H](Cc2c[nH]c3ccccc23)NC(=O)[C@H](CC(C)C)NC(=O)[C@H](CC(N)=O)NC(=O)[C@H](NC(=O)[C@H](Cc2ccccc2)NC(=O)[C@@H](NC(=O)[C@H](CCC(N)=O)NC(=O)[C@H](CCC(N)=O)NC(=O)[C@H](CO)NC(=O)[C@H](CCC(N)=O)NC(=O)CNC(=O)CNC(=O)c2ccc3c(c2)C(=O)OC32c3ccc(O)cc3Oc3cc(O)ccc32)[C@@H](C)O)CCCCNC(=O)CCc2cn(nn2)CCC[C@@H](C(=O)N[C@@H](CCC(N)=O)C(=O)N[C@@H](CC(N)=O)C(N)=O)NC1=O [st-p53pep]
[1]
  solubility in water (in words): poor water solubility
p53 in HepG2 cells; /GAPDH, Control = 1
  p53 level relative to Control: 1.126
p53 in HepG2 cells; intensity divided by GAPDH
  p53 rel. (/GAPDH): 0.7745
[2]; 25 ℃
  helix1: 0.186
  helix2: 0.16
  helix %: 34.6%
  strand1: 0.062
  strand2: 0.054
  total helix: 0.346
  turns: 0.123
  unordered: 0.415
[2]; 35 ℃
  helix1: 0.176
  helix2: 0.154
  helix %: 33%
  strand1: 0.059
  strand2: 0.054
  total helix: 0.33
  turns: 0.092
  unordered: 0.464
[2]; 45 ℃
  helix1: 0.187
  helix2: 0.158
  helix %: 34.5%
  strand1: 0.052
  strand2: 0.05
  total helix: 0.345
  turns: 0.11
  unordered: 0.444
[2]; 55 ℃
  helix1: 0.186
  helix2: 0.147
  helix %: 33.3%
  strand1: 0.057
  strand2: 0.049
  total helix: 0.333
  turns: 0.117
  unordered: 0.445
[2]; 65 ℃
  helix1: 0.088
  helix2: 0.108
  helix %: 19.6%
  strand1: 0.14
  strand2: 0.096
  total helix: 0.196
  turns: 0.134
  unordered: 0.433
[2]; 75 ℃
  helix1: 0.041
  helix2: 0.06
  helix %: 10.1%
  strand1: 0.132
  strand2: 0.079
  total helix: 0.101
  turns: 0.348
  unordered: 0.341
[2]; extracted peptide after re-encapsulation in SNCP8
  α-helicity: 73.4%
[2]; peptide extracted from SNCP8@st-p53pep
  α-helicity: 34.6%
HepG2 cells
  cell viability at corresponding dose: more than 80%
